The values that follow come from patent US6468972B1, “Method to promote, stimulate and/or delay hair loss by a brady kinin antagonist” (Societe L'Oreal S.A., priority 1995, dated 2002).

The inhibition is the drop in the measured response relative to a control, in per cent.

Experiment [1] has as its system bradykinin-induced increase in intracellular calcium concentration in keratinocytes of the outer sheath of human hair follicles. The experiment is described as follows: Effect on the increase in intracellular calcium concentration induced by bradykinin (FURA 2 spectrofluorimetry). The format is cell-based. The following applies: for % Inhibition (1 μM bradykinin): preincubation at least 120 seconds before 1 μM bradykinin, ORS keratinocytes; for Effect on the increase in intracellular calcium concentration induced by bradykinin (in words): summary statement of Example 1. As to the method: (§1) a) Culturing Keratinocytes of the Outer Sheath of Human Hair Follicles: This procedure is a variant of that described by YANG et al., J. Invest. Dermatol., 1993, 101 (5), 652-659. After decontamination, a lifting scalp biopsy is treated with dispase in a proportion of 2.4 units/ml for 20 hours at 4° C. The outer sheath of the hair follicles (ORS) is then isolated by dissection, followed by treatment with 0.125% trypsin for 30 minutes at 37° C. The cells thus prepared are then cultured in conditioned Green medium for 6 days. […] The cells are then placed on glass slides 10 mm in diameter and cultured in KGM medium. b) Measurement of the Intracellular Calcium Concentration: The measurements are taken according to the procedures used conventionally by those skilled in the art and which are found, for example, in Cellular Calcium: A Practical Approach, published by J. G. McCormack and P. H. Cobbold; IRL PRESS (1991). The cells are incubated for 1 hour at 37° C. in 10 mM HEPES buffer, 5 mM KCl, 140 mM NaCl, 10 mM glucose, 1 mM MgCl2, 2 mM CaCl2 with 5 μM FURA 2 acetomethyl ester and Pluronic (5 mg/10 ml). After rinsing in the buffer, the slides are placed in an adapted support and the reading is taken using a PERKIN ELMER LS 50 B spectrofluorimeter at 37° C. The cells are preincubated with or without Minoxidil or Minoxidil sulphate, for at least 120 seconds before the injection of 1 μM bradykinin.

Assay in experiment [2]: as above
The format is cell-based, human. The following applies: Homo sapiens, Keratinocyte, preincubation at least 120 seconds before 1 μM bradykinin, ORS keratinocytes. The procedure: as §1

For the molecule Minoxidil sulphate, the “% Inhibition (1 μM bradykinin)” value turned out to be 0% in experiment [1] (product concentration 10 μM), 31% in experiment [1] (product concentration 50 μM), 54% in experiment [1] (product concentration 100 μM) and 70% in experiment [1] (product concentration 1000 μM). Also, the “Effect on the increase in intracellular calcium concentration induced by bradykinin (in words)” value in experiment [1] is “inhibit the increase in intracellular calcium concentration induced by bradykinin”.
Take `Nc1cc(N2CCCCC2)nc(N)[n+]1[O-]` [Minoxidil, 2,4-diamino-6-piperidinopyrimidine 3-oxide]: in experiment [1], the “Effect on the increase in intracellular calcium concentration induced by bradykinin (in words)” value was “inhibit the increase in intracellular calcium concentration induced by bradykinin”. In experiment [2] (product concentration 10 μM), the inhibition at 10 µM is 0%. Besides, in experiment [2] (product concentration 50 μM), the inhibition at 50 µM was 15%. Besides, the inhibition at 100 µM in experiment [2] (product concentration 100 μM) was 25%. Further, the inhibition at 1000 µM in experiment [2] (product concentration 1000 μM) worked out at 31%.
